pIC50: −log10 of the molar value. Calls of active or inactive are those of the source. The rule behind the calls is not given here.
Tested on: L. donovani-infected THP-1 macrophages, intracellular amastigote imaging
Experiment: intracellular L. donovani amastigote inhibition, imaging, THP-1 host macrophages, host toxicity (AID 1159564)
[1] = measured here: THP-1 host cell toxicity
[2] = measured here: amastigotes per macrophage

Row | SMILES | pIC50 | pIC50 [1] | pIC50 [2] | IC50
1 | Cc1nc(C(=O)Nc2ccc3c(c2)OCO3)nn1-c1ccc(F)cc1 | 5.10 | < 4.30 | 5.60 | –
2 | NS(=O)(=O)c1ccc(Nc2ncc3cccc(OC4CCNCC4)c3n2)cc1 | 4.70 | 6.00 | 4.80 | –
3 | CC(C)C[C@H](NC(=O)c1ccc(-c2ccccc2)o1)C(=O)NC1(C#N)CC1 | – | < 4.30 | 4.80 | > 50 µM (inactive)
4 | CC(C)c1sc(Cl)nc1C(=O)NCCc1nc(C(=O)Nc2ccc3c(c2)OCO3)cs1 | 5.30 | < 4.30 | 5.60 | –
5 | Cc1c(C(=O)NCCCCn2ccnc2)oc2c(C)cccc12 | – | < 4.30 | < 4.30 | > 50 µM (inactive)
6 | CC(C(=O)Nc1ccc(Br)cc1)N1CCN(c2ccc([N+](=O)[O-])cc2)CC1 (stereo not given) | – | < 4.30 | < 4.30 | > 50 µM (inactive)
7 | CS(=O)(=O)NC1CCC(Nc2ncc(Br)c(Nc3ccccc3C(N)=O)n2)CC1 (stereo not given) | 5.70 | 6.30 | 6.10 | –
8 | O=C1CN(Cc2ccco2)C2CS(=O)(=O)CC2N1c1ccc(Cl)cc1 (stereo not given) | – | < 4.30 | < 4.30 | > 50 µM (inactive)
9 | CC(=O)NCCNc1cc(-c2ccnc(Nc3cccc(Cl)c3)n2)ccn1 | 6.60 | 7.00 | 7.00 | –
10 | Clc1ccc(C(CC2CCCCO2)Cn2cncn2)c(Cl)c1 (stereo not given) | – | < 4.30 | < 4.30 | > 50 µM (inactive)
11 | O=c1cc(NCCCNC2CCOc3c(I)cc(Cl)cc32)[nH]c2ccccc12 (stereo not given) | 4.70 | 4.70 | 4.89 | –
12 | CCOc1ccccc1C(=O)Nc1nnc(-c2ccc3c(c2)OCO3)s1 | 6.30 | < 4.30 | 6.49 | –
13 | Cc1[nH]nc2c1C(c1ccc(OCc3ccccc3F)cc1)SCC(=O)N2 (stereo not given) | – | < 4.30 | < 4.30 | > 50 µM (inactive)
14 | COc1ccc(CN2CCCCC2c2nc(-c3cccnc3)no2)cc1 (stereo not given) | – | < 4.30 | < 4.30 | > 50 µM (inactive)
15 | COc1cnc2ccc(=O)n(CCN3CCC(NC/C=C/c4cc(F)ccc4F)CC3)c2c1 | 5.30 | 4.40 | 5.70 | –
16 | Nc1nc(-c2ccccc2)cc(-c2nc3ncccc3[nH]2)n1 | 5.60 | < 4.30 | 5.60 | –
17 | COc1ccc(NS(=O)(=O)c2cc(NC(=O)Cc3ccc(C)cc3)ccc2N2CCOCC2)cc1 | – | < 4.30 | < 4.30 | > 50 µM (inactive)
18 | Cc1cc(N2CCc3ccccc3C2)nc(Nc2ccc(S(=O)(=O)N3CCOCC3)cc2)n1 | 5.30 | 4.60 | 5.80 | –

Row | SMILES | pIC50 | pIC50 [1] | pIC50 [2] | IC50
19 | CN(C)Cc1ccc(N2CCC(NS(=O)(=O)c3ccc(Cl)cc3)CC2)cc1 | – | 4.60 | 4.60 | > 50 µM (inactive)
20 | CCc1nn(-c2ncc(F)c(NC(C)C)n2)c(N)c1C1CCCCC1 | 5.49 | 4.80 | 5.80 | –
21 | Cn1nccc1-c1cc(OC(CN)c2ccccc2)cnc1-c1ccco1 (stereo not given) | – | 4.80 | 4.49 | > 50 µM (inactive)
22 | O=C(Nc1ccc(C(F)(F)F)cc1)Nc1cccc([N+](=O)[O-])c1 | 5.60 | 5.20 | 5.70 | –
23 | O=C(Nc1nc2ccccc2[nH]1)c1ccc2nc[nH]c2c1 | 5.30 | < 4.30 | 5.49 | –
24 | CCCCn1nnnc1CSc1nc(C)cc(C)c1C#N | 5.40 | < 4.30 | 5.49 | –
25 | COc1ccc(-c2csc(NC(=O)c3ccc([N+](=O)[O-])s3)n2)cc1OC | 5.89 | 4.49 | 5.89 | –
26 | Cc1cc(Br)cc(C(=O)c2c(C(C)C)c(=O)[nH]c(=O)n2Cc2ccnc(N)c2)c1 | 4.49 | 4.40 | 4.70 | –
27 | CNc1cc(C)nc(C2CN(C(=O)c3n[nH]c4ccccc34)CCO2)c1 (stereo not given) | – | < 4.30 | < 4.30 | > 50 µM (inactive)
28 | O=C(NCc1ccc(-n2cccc2)cc1)c1nc(Cn2ccc([N+](=O)[O-])n2)no1 | – | < 4.30 | < 4.30 | > 50 µM (inactive)
29 | O=C(NCc1ccncc1)c1ccccc1N1CCCN(C(=O)Cc2ccc(F)c(F)c2)CC1 | – | < 4.30 | < 4.30 | > 50 µM (inactive)
30 | CC1(C)CCC(=Cc2ccc(Cl)cc2)CC1(O)Cn1ccnc1 (stereo not given) | 5.10 | 4.89 | 5.70 | –
31 | Cc1cc(C)c(C#N)c(SCC(=O)c2ccc3c(c2)OCO3)n1 | – | < 4.30 | < 4.30 | > 50 µM (inactive)
32 | Cc1[nH]c2ccccc2c(=O)c1Cc1c(C)[nH]c2ccccc2c1=O | – | < 4.30 | < 4.30 | > 50 µM (inactive)
33 | O=C(NCC1CCCCC1)c1cc(=O)c2ccccc2o1 | 4.80 | > 4.30 | 5.20 | –
34 | CCCn1c(NC(=O)Cc2ccc(Cl)cc2)nc2ccccc21 | 5.30 | < 4.30 | 5.49 | –
35 | Cc1cccc(Nc2nc(-c3ccccn3)cs2)n1 | 5.49 | < 4.30 | 5.70 | –
